Measurements as given in ChEMBL document CHEMBL3886382, “PDE 10a inhibitors for the treatment of type II diabetes” (2015).

Columns and labels:
[1] = biological target: cAMP and cAMP-inhibited cGMP 3',5'-cyclic phosphodiesterase 10A (Homo sapiens, UniProt Q9Y233); assay: In Vitro Assay: Human recombinant PDE10A2 was expressed in Sf9 cells, using a recombinant baculovirus construct containing the full length sequence containing a 6ÿHis sequence following the start Met to allow metal affinity purification of the recombinant protein. Cells were harvested and the phosphodiesterase protein was purified by metal chelate chromatography on Ni-sepharose 6FF.The affinity of the compounds of Formula (I) for phophodiesterases (PDE) was measured by a scintillation proximity assay (SPA). PDE Yttrium Silicate SPA beads allow PDE activity to be measured by direct binding of the primary phosphate groups of non-cyclic AMP or GMP to the beads via a complex iron chelation mechanism. The amount of bound tritiated product ([3H]-AMP) is measured by liquid scintillation counting.The compounds were dissolved and diluted in 100% DMSO in polystyrene plates to a concentration of 100-fold the final concentration in the assay. Human PDE10A enzyme solution (10 uL) was added.
[2] = biological target: T1, cAMP and cAMP-inhibited cGMP 3',5'-cyclic phosphodiesterase 10A (Rattus norvegicus, UniProt Q9QYJ6); assay: In Vitro Assay: Rat recombinant PDE10a (rPDE10a) was expressed in Sf9 cells using a recombinant rPDE10a baculovirus construct. Cells were harvested after 48 h of infection and the rPDE10a protein was purified by metal chelate chromatography on Ni-sepharose 6FF. Tested compounds were dissolved and diluted in 100% DMSO to a concentration 100 fold of the final concentration in the assay. Compound dilutions (0.4 uL) were added in 384 well plates to 20 uL of incubation buffer (50 mM Tris pH 7.8, 8.3 mM MgCl2, 1.7 mM EGTA). 10 uL of rPDE10a enzyme in incubation buffer was added and the reaction was started by addition of 10 uL substrate to a final concentration of 60 nM cAMP and 0.008 uCi3H-cAMP. The reaction was incubated for 60 min at rt. After incubation, the reaction was stopped with 20 uL of 17.8 mg/mL PDE SPA beads. After sedimentation of the beads during 30 min the radioactivity was measured in a Perkin Elmer Topcount scintillation counter.
T1 sequence (Q9QYJ6 whole entry): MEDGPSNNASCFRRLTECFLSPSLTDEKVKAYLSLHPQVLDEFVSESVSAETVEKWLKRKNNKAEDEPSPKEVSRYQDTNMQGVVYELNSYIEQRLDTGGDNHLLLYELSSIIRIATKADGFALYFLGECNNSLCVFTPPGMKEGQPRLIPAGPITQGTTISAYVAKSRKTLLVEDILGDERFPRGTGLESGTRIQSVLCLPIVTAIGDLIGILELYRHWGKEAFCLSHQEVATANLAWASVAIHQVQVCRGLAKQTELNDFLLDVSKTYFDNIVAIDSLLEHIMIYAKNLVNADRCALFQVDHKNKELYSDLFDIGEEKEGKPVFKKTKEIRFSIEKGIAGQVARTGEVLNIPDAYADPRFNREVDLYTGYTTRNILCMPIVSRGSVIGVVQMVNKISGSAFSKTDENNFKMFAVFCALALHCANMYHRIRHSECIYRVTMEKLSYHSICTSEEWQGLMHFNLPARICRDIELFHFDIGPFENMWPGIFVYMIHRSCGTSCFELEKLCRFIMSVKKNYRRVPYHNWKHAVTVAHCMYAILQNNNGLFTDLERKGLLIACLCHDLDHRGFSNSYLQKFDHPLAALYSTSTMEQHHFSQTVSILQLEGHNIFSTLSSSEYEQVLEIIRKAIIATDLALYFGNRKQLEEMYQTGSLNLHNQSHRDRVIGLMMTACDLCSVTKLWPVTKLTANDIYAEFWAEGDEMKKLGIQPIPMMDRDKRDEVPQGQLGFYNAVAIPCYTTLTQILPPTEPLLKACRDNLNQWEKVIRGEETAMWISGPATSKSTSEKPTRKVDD

cAMP and cAMP-inhibited cGMP 3',5'-cyclic phosphodiesterase 10A (Homo sapiens, UniProt Q9Y233), sequence (Q9Y233 whole entry): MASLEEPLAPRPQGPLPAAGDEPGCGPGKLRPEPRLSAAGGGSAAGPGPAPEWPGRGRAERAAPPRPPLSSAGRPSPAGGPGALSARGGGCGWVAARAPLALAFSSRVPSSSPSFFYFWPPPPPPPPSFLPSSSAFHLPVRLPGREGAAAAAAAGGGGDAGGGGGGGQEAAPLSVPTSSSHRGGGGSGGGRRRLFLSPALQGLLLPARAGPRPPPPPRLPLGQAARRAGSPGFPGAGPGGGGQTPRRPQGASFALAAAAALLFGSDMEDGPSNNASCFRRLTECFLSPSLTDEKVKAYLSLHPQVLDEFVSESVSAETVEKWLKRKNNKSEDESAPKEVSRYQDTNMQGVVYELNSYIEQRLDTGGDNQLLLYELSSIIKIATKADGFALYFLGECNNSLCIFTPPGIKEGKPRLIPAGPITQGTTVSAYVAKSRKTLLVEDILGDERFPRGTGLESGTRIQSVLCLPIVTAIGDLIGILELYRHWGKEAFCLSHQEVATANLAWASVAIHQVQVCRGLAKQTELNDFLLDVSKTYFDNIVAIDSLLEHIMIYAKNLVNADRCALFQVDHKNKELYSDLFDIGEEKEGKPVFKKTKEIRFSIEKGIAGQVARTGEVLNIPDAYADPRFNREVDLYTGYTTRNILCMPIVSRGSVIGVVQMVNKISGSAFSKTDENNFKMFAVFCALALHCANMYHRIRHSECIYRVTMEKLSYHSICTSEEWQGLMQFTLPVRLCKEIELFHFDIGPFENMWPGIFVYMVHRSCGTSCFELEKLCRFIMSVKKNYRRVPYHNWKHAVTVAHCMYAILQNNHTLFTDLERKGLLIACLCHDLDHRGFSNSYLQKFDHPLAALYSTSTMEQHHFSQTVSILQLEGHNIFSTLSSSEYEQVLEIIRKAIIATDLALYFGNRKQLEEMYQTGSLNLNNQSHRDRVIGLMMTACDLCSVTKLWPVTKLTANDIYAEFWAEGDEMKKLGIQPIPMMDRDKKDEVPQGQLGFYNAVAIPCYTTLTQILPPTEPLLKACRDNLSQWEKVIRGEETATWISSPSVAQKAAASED

Structure (SMILES)	IC50 [1] [nM]	IC50 [2] [nM]
COc1cccc(-c2c(/C=C/c3ccc4c(C(=O)O)cccc4n3)nc3c(N4CCOCC4)ccnn23)c1	1	–
O=C(O)c1cccc2nc(/C=C/c3nc4c(N5CCOCC5)ccnn4c3-c3ccccc3)ccc12	< 1	1
C(=C\c1nc2c(N3CCOCC3)ccnn2c1-c1ccc(Sc2nnc[nH]2)nc1)/c1ccc2ccccc2n1	6	4
N#Cc1ccc(-c2c(/C=C/c3ccc4c(C(=O)O)cccc4n3)nc3c(N4CCOCC4)ccnn23)cc1	–	1
C(#Cc1nc2c(N3CCOCC3)ccnn2c1-c1ccc(N2CCNCC2)nc1)c1ccc2ccccc2n1	3	1
O=C(O)c1ccc(-c2c(CSc3ccc4ccccc4n3)nc3c(N4CCOCC4)ccnn23)cc1	–	1
O=C(O)CN1CCC(c2c(C#Cc3ccc4ccccc4n3)nc3c(N4CCOCC4)ccnn23)CC1	7	5
O=C(O)c1cccc2nc(/C=C/c3nc4c(N5CCOCC5)cc(Cl)nn4c3-c3cccnc3)ccc12	–	2
